Results as given in publication PMC9841531, “Indole Derivatives as New Structural Class of Potent and Antiproliferative Inhibitors of Monocarboxylate Transporter 1 (MCT1; SLC16A1)” (Journal of Medicinal Chemistry, 2022).

Key:
[1] = tested on: A-549 cells; test: 3-BP toxicity against A-549 cells (MTT); assay type: cell-based
Description: (§1) The inhibitory activity of indole derivatives against MCT1 was determined by applying a functional 3-bromopyruvate (3-BP) cell viability assay, as described in the literature[20],[39] with minor modifications. In short, MCT1-expressing A-549 cells[14],[15] were exposed to the MCT1 substrate 3-BP, which becomes influxed by MCT1. 3-BP is toxic, leading to decreased cell viability. Functional inhibition of MCT1 results in reduced intracellular 3-BP levels and, thus, enhanced cell viability compared to no inhibition. […] Table 1 provides the half-maximal inhibition concentration (IC50) values of compounds 17–32.
(§2) A functional 3-BP cytotoxicity assay was conducted as described in the literature[20],[39] with minor modifications. Dilution series of compounds 17–32 between 1 nM and 1 μM were prepared in DPBS (Cell Clone, Genetix Biotech Asia, New Delhi India), and 10 μL of each concentration was pipetted into a colorless flat-bottom 96-well microplate (SPL Life Sciences, Gyeonggi-do, Republic of Korea). One hundred and eighty microliters of a cell suspension (5000 cells/well) of A-549 cells was added, and subsequently, 10 μL of 3-BP was added at a concentration of 1 mM (final concentration per well: 50 μM). The plate was kept for 72 h at 37 °C under a 5% CO2-humidified atmosphere. Cell viability was determined as described before[43] by adding 20 μL of a 5 mg/mL solution of MTT to each well and further incubation for 1 h. Eventually, the supernatant was removed and 100 μL of DMSO was added to each well. The absorbance was spectrophotometrically determined at 570 nm using a SpectraMax iD3 multi-mode microplate reader (Molecular Devices, San Jose, CA) with a background correction (690 nm). The determined absorbance values were correlated to the logarithmic concentrations of compounds 17–32, and IC50 values were calculated applying nonlinear regression using GraphPad Prism (version 8.4.0., San Diego, CA).

[2] = target: T1, MCT1 (Homo sapiens, UniProt P53985); test: functional 3-BP cell viability assay (MCT1 transport inhibition); assay type: cell-based; conditions: MCT1-expressing A-549 cells, 50 μM 3-BP, 72 h; read-out: MCT1 transport inhibition IC50 ± SEM
T1 construct: MCT1-expressing A-549 cells[14],[15] were exposed to the MCT1 substrate 3-BP, which becomes influxed by MCT1; endogenous in cells; host or cells: A-549 lung cancer cells (from NCCS, Pune)
T1 sequence (P53985 1-500): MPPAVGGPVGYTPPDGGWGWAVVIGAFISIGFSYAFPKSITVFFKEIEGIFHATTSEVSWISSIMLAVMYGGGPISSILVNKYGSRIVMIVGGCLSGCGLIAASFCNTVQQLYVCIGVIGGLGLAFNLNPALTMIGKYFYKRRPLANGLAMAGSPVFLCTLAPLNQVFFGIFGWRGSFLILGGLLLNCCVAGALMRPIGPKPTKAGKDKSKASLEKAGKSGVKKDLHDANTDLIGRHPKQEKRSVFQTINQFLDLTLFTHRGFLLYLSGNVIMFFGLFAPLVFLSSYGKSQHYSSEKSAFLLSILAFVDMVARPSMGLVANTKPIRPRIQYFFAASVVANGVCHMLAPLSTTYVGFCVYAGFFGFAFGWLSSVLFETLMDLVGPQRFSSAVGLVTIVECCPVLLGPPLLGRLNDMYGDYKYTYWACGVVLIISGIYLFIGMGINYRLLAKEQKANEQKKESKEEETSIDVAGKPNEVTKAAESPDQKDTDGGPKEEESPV
T1 sequence (P35613 140-385 partner limits assumed): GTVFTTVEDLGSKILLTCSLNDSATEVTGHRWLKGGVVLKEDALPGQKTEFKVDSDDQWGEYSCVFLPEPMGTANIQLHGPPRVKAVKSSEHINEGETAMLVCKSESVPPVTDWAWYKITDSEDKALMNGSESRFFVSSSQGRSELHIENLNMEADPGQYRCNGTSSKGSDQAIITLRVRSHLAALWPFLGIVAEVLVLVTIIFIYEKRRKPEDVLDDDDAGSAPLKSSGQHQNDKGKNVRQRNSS
Description: as §1, §2

[3] = tested on: MCF-7 cancer cells; test: MTT-based cell viability assay, MCF-7; conditions: Homo sapiens, MCF7, 72 h, read-out: MCF-7 cancer cell toxicity GI50 ± SEM
From the text: (§3) MCT1-expressing cells have an extraordinary energy demand and rely on pyruvate metabolism, through either lactate conversion or pyruvate consumption. Inhibition of MCT1 blocks lactate and pyruvate influx into cancer cells, which prevents their processing in the TCA cycle. Over time, the viability of cells exposed to an MCT1 inhibitor is impaired due to pyruvate deprivation, which is compensated by upregulating glucose metabolism—leading to an overconsumption of glucose. To confirm the antiproliferative nature of the indole derivatives, we investigated the compounds toward the MCT1-expressing cell lines A-549[14],[15] and MCF-7.[16] Cancer cell viability was assessed via a 3-(4,5-dimethylthiazol-2-yl)-2,5-diphenyltetrazolium bromide (MTT) assay, as reported earlier.[43]
(§4) To determine the growth inhibitory potential of compounds 17–32, […] of each compound either at concentrations between 1 and 100 μM (A-549 or MCF-7) or at 10 and 50 μM (NIH/3T3) was pipetted into colorless flat-bottom 96-well microplates. Thereafter, 180 μL of a cell suspension (5000 cells/well) of either A-549, MCF-7, or NIH/3T3 cells was added and subsequently kept for 72 h at 37 °C under a 5% CO2-humidified atmosphere. The cell viability as well as the GI50 values were determined as described above.[43]

[4] = tested on: A-549 cancer cells; test: MTT-based cell viability assay, A-549; conditions: Homo sapiens, A549, 72 h, read-out: A-549 cancer cell toxicity GI50 ± SEM
From the text: as §3, §4

[5] = target: ABCB1 (Homo sapiens, UniProt P08183); test: calcein AM assay, ABCB1-expressing A2780/ADR cells; conditions: screening at 10 μM, inhibitor if 20% (+SEM) reached
From the text: (§5) To provide a detailed picture of the pharmacological profile of the indole derivatives, we investigated their modulatory nature on the most prominent ABC transporters ABCB1 (P-glycoprotein, P-gp), ABCC1, (multidrug resistance-associated protein 1, MRP1), and ABCG2 (breast cancer resistance protein, BCRP). Here, we conducted calcein AM (ABCB1),[2],[52]−[59] daunorubicin (ABCC1),[52],[58]−[60] and pheophorbide A (ABCG2)[2],[52]−[60] assays using ABCB1-expressing A2780/ADR, ABCC1-expressing H69AR, and ABCG2-expressing MDCK II BCRP cells, respectively.
(§6) The calcein AM (ABCB1),[2],[52]−[59] daunorubicin (ABCB1[52],[60] and ABCC1[52],[58]−[60]), and pheophorbide A (ABCG2)[2],[52]−[60] assays were conducted as reported earlier. […] The data was processed using GraphPad Prism version 8.4.0, and IC50 values were determined, applying three- or four-parameter logistic equations, whatever was statistically preferred.

[6] = target: ABCC1 (Homo sapiens, UniProt P33527); test: daunorubicin assay, ABCC1-expressing H69AR cells; conditions: screening at 10 μM, inhibitor if 20% (+SEM) reached
Chain of ABCC1 (P33527 whole entry): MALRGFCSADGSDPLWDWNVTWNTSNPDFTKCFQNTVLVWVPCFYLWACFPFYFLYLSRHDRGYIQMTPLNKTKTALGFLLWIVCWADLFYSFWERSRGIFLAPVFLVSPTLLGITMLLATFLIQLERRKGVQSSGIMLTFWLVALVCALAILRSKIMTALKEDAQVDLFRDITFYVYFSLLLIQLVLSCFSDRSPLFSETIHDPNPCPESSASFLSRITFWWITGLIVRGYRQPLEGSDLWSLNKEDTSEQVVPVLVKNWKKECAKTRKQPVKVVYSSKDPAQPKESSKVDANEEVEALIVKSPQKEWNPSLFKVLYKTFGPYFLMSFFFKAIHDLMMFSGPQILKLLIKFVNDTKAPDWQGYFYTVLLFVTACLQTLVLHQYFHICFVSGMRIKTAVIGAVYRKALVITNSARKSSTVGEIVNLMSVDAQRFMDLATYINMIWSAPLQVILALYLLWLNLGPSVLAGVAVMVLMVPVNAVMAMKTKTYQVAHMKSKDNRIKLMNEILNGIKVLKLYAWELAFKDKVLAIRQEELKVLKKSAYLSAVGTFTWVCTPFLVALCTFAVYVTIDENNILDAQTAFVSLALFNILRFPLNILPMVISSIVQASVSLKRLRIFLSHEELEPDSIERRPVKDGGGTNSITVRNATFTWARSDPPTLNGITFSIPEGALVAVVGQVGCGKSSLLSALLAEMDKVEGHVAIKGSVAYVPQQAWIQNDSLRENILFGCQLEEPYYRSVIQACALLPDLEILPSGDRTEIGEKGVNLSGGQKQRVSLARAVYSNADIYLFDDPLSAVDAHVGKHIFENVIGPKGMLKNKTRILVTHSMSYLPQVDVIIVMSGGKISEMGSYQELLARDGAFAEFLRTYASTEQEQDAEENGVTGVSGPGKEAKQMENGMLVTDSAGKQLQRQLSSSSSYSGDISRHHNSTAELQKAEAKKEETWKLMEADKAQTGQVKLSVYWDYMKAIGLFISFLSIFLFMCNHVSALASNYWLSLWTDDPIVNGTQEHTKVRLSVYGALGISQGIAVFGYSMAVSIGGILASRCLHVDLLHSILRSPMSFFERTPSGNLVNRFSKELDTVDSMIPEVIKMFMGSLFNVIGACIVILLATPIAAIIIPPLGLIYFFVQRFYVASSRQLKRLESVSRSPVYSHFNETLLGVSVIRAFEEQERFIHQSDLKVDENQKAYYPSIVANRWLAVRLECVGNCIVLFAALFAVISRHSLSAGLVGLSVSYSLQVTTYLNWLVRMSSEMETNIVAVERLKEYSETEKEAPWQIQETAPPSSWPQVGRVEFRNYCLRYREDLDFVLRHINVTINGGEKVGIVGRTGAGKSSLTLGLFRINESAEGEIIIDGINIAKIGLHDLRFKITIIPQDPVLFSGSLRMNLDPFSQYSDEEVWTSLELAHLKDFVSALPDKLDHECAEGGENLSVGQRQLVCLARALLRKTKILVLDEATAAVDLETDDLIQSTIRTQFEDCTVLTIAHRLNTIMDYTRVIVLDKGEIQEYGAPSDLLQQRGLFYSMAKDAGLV
From the text: as §5, §6

Chain of ABCB1 (P08183 whole entry): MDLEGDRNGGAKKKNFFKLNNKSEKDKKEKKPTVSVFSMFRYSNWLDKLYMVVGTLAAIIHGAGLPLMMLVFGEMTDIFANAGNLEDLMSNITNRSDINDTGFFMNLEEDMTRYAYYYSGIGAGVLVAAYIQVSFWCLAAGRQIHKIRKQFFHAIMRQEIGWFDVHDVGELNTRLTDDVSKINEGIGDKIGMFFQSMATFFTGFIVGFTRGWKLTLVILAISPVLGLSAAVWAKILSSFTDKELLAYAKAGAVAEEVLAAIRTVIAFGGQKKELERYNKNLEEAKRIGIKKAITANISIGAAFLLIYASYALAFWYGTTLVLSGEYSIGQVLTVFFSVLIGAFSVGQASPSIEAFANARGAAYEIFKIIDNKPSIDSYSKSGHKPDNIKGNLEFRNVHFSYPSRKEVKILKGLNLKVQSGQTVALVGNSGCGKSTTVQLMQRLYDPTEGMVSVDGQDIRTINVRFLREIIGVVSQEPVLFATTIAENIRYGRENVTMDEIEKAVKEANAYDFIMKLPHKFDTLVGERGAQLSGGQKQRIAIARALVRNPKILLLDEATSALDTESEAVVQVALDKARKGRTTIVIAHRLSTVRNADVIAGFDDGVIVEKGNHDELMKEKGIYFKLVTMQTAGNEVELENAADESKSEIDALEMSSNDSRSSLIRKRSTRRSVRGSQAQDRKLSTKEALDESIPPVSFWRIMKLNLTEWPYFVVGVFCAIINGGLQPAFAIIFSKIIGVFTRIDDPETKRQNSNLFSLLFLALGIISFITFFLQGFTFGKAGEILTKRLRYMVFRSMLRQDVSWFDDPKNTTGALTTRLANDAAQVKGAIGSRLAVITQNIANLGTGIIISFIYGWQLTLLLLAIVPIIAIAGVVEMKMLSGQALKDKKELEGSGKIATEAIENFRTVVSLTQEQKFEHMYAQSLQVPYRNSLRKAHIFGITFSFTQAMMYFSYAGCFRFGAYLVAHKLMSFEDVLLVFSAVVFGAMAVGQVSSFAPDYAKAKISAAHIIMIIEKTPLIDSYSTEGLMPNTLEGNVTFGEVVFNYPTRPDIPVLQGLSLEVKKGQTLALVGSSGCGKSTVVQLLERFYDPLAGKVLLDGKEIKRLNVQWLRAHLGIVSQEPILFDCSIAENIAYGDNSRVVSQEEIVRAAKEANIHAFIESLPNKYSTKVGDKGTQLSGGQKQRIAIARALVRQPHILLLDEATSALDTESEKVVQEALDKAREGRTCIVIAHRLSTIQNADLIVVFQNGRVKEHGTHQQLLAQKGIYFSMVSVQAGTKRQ

| Compound | GI90 of 3-BP ([1]; A-549 cells) | GI50 ([1]; Homo sapiens, A549, read-out: half-maximal growth inhibition (GI50) of 3-BP, A-549 cells) | inhibition at 50 µM ([1]; Homo sapiens, A549, 50 μM 3-BP, read-out: inhibition of A-549 cell growth) | IC50 [2] | GI50 [3] | GI50 [4] | ABCB1 inhibition [5] | ABCC1 inhibition [6] |
| --- | --- | --- | --- | --- | --- | --- | --- | --- |
| O=C(O)C(=O)CBr [3-BP, 3-bromopyruvate] | 49.8 ± 0.6 µM | 25 ± 0.4 µM | ≥ 90% |  |  |  |  |  |
| COC(=O)/C(C#N)=C/c1cn(CC(=O)Nc2ccccc2)c2ccccc12 [Compound 17, Methyl-2-cyano-3-(1-(2-oxo-2-(phenylamino)ethyl)-1H-indol-3-yl) Acrylate] |  |  |  | 0.314 ± 0.047 µM | 15.4 ± 0.3 µM | 29.2 ± 0.2 µM | X (Compounds were considered as inhibitors if they reached 20% (+SEM) inhibition compared to the reference inhibitors 33–35; X = fulfilled) |  |
| COC(=O)/C(C#N)=C/c1cn(CC(=O)Nc2cccc3ccccc23)c2ccccc12 [Compound 18, Methyl-2-cyano-3-(1-(2-(naphthalen-1-ylamino)-2-oxoethyl)-1H-indol-3-yl) Acrylate] |  |  |  | 0.193 ± 0.01 µM | 15.4 ± 0.5 µM | 21.5 ± 0.4 µM | X (Compounds were considered as inhibitors if they reached 20% (+SEM) inhibition compared to the reference inhibitors 33–35; X = fulfilled) |  |
| COC(=O)/C(C#N)=C/c1cn(CC(=O)Nc2ccc3ccccc3c2)c2ccccc12 [Compound 19, Methyl-2-cyano-3-(1-(2-(naphthalen-2-ylamino)-2-oxoethyl)-1H-indol-3-yl) Acrylate] |  |  |  | 0.109 ± 0.003 µM | 15.5 ± 1.3 µM | 26.9 ± 0.3 µM | X (Compounds were considered as inhibitors if they reached 20% (+SEM) inhibition compared to the reference inhibitors 33–35; X = fulfilled) |  |
| COC(=O)/C(C#N)=C/c1cn(CC(=O)Nc2ccccc2C)c2ccccc12 [Compound 20, Methyl-2-cyano-3-(1-(2-oxo-2-(o-tolylamino)ethyl)-1H-indol-3-yl) Acrylate] |  |  |  | 0.105 ± 0.006 µM | 15.3 µM | 28.3 ± 0.1 µM | X (Compounds were considered as inhibitors if they reached 20% (+SEM) inhibition compared to the reference inhibitors 33–35; X = fulfilled) | X (Compounds were considered as inhibitors if they reached 20% (+SEM) inhibition compared to the reference inhibitors 33–35; X = fulfilled) |
| COC(=O)/C(C#N)=C/c1cn(CC(=O)Nc2ccc(C)cc2)c2ccccc12 [Compound 21, Methyl-2-cyano-3-(1-(2-oxo-2-(p-tolylamino)ethyl)-1H-indol-3-yl) Acrylate] |  |  |  | 0.112 ± 0.01 µM | 13.9 ± 0.1 µM | 14 ± 0.5 µM | X (Compounds were considered as inhibitors if they reached 20% (+SEM) inhibition compared to the reference inhibitors 33–35; X = fulfilled) | X (Compounds were considered as inhibitors if they reached 20% (+SEM) inhibition compared to the reference inhibitors 33–35; X = fulfilled) |
| COC(=O)/C(C#N)=C/c1cn(CC(=O)Nc2ccc(F)cc2)c2ccccc12 [Compound 25, Methyl-2-cyano-3-(1-(2-((4-fluorophenyl)amino)-2-oxoethyl)-1H-indol-3-yl) Acrylate] |  |  |  | 0.793 ± 0.138 µM | 15.1 ± 0.3 µM | 22 ± 0.6 µM | X (Compounds were considered as inhibitors if they reached 20% (+SEM) inhibition compared to the reference inhibitors 33–35; X = fulfilled) | X (Compounds were considered as inhibitors if they reached 20% (+SEM) inhibition compared to the reference inhibitors 33–35; X = fulfilled) |
| COC(=O)/C(C#N)=C/c1cn(CC(=O)Nc2ccc(Cl)cc2)c2ccccc12 [Compound 26, Methyl-3-(1-(2-((4-chlorophenyl)amino)-2-oxoethyl)-1H-indol-3-yl)-2-cyanoacrylate] |  |  |  | 0.196 ± 0.005 µM | 10.7 ± 0.4 µM | 21 ± 0.4 µM | X (Compounds were considered as inhibitors if they reached 20% (+SEM) inhibition compared to the reference inhibitors 33–35; X = fulfilled) | X (Compounds were considered as inhibitors if they reached 20% (+SEM) inhibition compared to the reference inhibitors 33–35; X = fulfilled) |
| COC(=O)/C(C#N)=C/c1cn(CC(=O)Nc2c(Cl)cccc2Cl)c2ccccc12 [Compound 27, Methyl-2-cyano-3-(1-(2-((2,6-dichlorophenyl)amino)-2-oxoethyl)-1H-indol-3-yl) Acrylate] |  |  |  | 0.109 ± 0.002 µM | 17.3 ± 0.6 µM | 25 ± 0.5 µM | X (Compounds were considered as inhibitors if they reached 20% (+SEM) inhibition compared to the reference inhibitors 33–35; X = fulfilled) | X (Compounds were considered as inhibitors if they reached 20% (+SEM) inhibition compared to the reference inhibitors 33–35; X = fulfilled) |
| COC(=O)/C(C#N)=C/c1cn(CC(=O)Nc2ccc(Br)cc2)c2ccccc12 [Compound 28, Methyl-3-(1-(2-((4-bromophenyl)amino)-2-oxoethyl)-1H-indol-3-yl)-2-cyanoacrylate] |  |  |  | 0.287 ± 0.047 µM | 9.99 ± 0.46 µM | 19.2 ± 0.2 µM | X (Compounds were considered as inhibitors if they reached 20% (+SEM) inhibition compared to the reference inhibitors 33–35; X = fulfilled) |  |
| COC(=O)/C(C#N)=C/c1cn(CC(=O)Nc2ccccn2)c2ccccc12 [Compound 29, Methyl-2-cyano-3-(1-(2-oxo-2-(pyridin-2-ylamino)ethyl)-1H-indol-3-yl) Acrylate] |  |  |  | 0.198 ± 0.004 µM | 4.32 ± 0.14 µM | 17.1 ± 0.4 µM |  |  |
| COC(=O)/C(C#N)=C/c1cn(CC(=O)Nc2cccnc2)c2ccccc12 [Compound 32, Methyl-2-cyano-3-(1-(2-oxo-2-(pyridin-3-ylamino)ethyl)-1H-indol-3-yl) Acrylate] |  |  |  | 0.109 ± 0.003 µM | 11.1 ± 0.2 µM | 19.2 ± 0.4 µM | X (Compounds were considered as inhibitors if they reached 20% (+SEM) inhibition compared to the reference inhibitors 33–35; X = fulfilled) | X (Compounds were considered as inhibitors if they reached 20% (+SEM) inhibition compared to the reference inhibitors 33–35; X = fulfilled) |
